Series [1] deals with T1, A-form of the human progesterone receptor (Homo sapiens, UniProt P06401).
T1 sequence (P06401 1-769 isoform P06401-2): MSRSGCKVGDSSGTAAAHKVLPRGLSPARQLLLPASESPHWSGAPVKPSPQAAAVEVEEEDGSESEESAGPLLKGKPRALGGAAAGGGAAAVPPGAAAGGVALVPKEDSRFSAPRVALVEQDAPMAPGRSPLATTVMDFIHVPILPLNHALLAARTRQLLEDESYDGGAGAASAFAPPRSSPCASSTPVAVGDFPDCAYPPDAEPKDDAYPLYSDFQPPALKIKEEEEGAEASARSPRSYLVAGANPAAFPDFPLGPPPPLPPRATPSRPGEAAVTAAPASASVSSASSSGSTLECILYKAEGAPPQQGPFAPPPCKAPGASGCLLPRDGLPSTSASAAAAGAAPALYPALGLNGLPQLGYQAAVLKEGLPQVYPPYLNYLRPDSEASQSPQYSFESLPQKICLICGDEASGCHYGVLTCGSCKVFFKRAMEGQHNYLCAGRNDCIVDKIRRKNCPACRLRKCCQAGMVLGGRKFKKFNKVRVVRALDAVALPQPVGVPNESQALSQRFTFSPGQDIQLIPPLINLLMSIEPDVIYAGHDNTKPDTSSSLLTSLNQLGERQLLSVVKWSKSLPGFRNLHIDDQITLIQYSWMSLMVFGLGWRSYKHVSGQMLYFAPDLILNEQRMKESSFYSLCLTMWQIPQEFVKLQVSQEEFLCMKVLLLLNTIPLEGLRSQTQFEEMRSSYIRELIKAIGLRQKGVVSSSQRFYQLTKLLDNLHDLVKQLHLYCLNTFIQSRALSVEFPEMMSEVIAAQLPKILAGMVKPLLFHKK
Briefly: hPR binding assay (competitive radioligand binding).

Series [2] has as its system rat uterine decidualization. Briefly: Rat decidualization assay. Particulars: rat decidualization, antiprogestational mode, read-out: Decid. IC50 mg/kg. In kind it is in vivo. The method, then:
1. Rat Decidualization Assay
The animals are treated once daily for seven days.
Uteri are removed and trimmed of fat.
Decidual response: [(D-C)/C]×100%

Series [3] deals with T47D cells. Briefly: T47D cell proliferation assay (BrdU incorporation). Particulars: half-maximal increase in BrdU incorporation, individual studies. The format is cell-based. How it is done:
3. T47D Cell Proliferation Assay
The objective of this assay is the determination of progestational and antiprogestational potency by using a cell proliferation assay in T47D cells. A compound's effect on DNA synthesis in T47D cells is measured.
DMEM:F12 (1:1) (GIBCO, BRL) supplemented with 10% (v/v) fetal bovine serum (not heat-inactivated), 100 U/ml penicillin, […], and 2 mM GlutaMax (GIBCO, BRL).
Minimum Essential Medium (MEM) (#51200-038GIBCO, BRL) phenol red-free supplemented with 0.5% charcoal stripped fetal bovine serum, 100 U/ml penicillin, 200 mg/ml streptomycin, and 2 mM GlutaMax (GIBCO, BRL).
Stock T47 D cells are maintained in growth medium For BrdU incorporation assay, cells are plated in 96-well plates (Falcon, Becton Dickinson Labware) at 10,000 cells/well in growth medium. […]
At the end of BrdU labeling, the medium is removed and BrdU incorporation is measured using a cell proliferation ELISA kit (#RPN 250, Amersham Life Science) according to manufacturer's instructions. […] Then 25 μl of 1 M sulfuric acid is added to each well to stop color reaction and optical density is read in a plate reader at 450 nm within 5 min.
Square root-transformed data are used for analysis of variance and nonlinear dose response curve fitting for both agonist and antagonist modes. […] EC50 or IC50 values are calculated from the retransformed values. […]
In general terms: Dividing cells build labelled thymidine or BrdU into new DNA.

Each structure is given as a SMILES string. “And” between values parts separate entries of the source, which are not always exact repeats. Identical values can stand only once.

As usually defined, the melting point is the temperature of the solid-liquid transition. As a reminder, the Ki is a measure of affinity in units of concentration, obtained from inhibition or displacement. Consider `O=C1Nc2ccc(-c3cc(F)cc([N+](=O)[O-])c3)cc2C12CCCCC2` [Example 32, 5-(3-Fluoro-5-nitrophenyl)spiro[cyclohexane-1,3-[3H]indol]-2(1H)-one], for which the melting point was 191 to 193 °C. The same compound returned a Ki in series [1] of 9 nM. In addition, the inhibition in vivo at 10 mg/kg in series [2] was determined as 60%.
`N#Cc1cc(-c2ccc3c(c2)C2(CCCCC2)C(=O)N3)cs1` [Example 34, 4-(1,2-Dihydro-2-oxospiro[cyclohexane-1,3-[3H]indol]-5-yl)-2-thiophenecarbonitrile] displayed a Ki in series [1] of 19 nM. Moreover, the inhibition in vivo at 10 mg/kg in series [2] stood at 50%.
In the case of `N#Cc1ccc(-c2ccc3c(c2)C2(CCCCC2)C(=O)N3)s1` [Example 35], the melting point was in the range of 225 to 228 °C. The compound also returned a Ki in series [1] of 22 nM. The inhibition in vivo at 10 mg/kg in series [2] worked out at 50%.
Turning to `Cc1cc(C#N)sc1-c1ccc2c(c1)C1(CCCCC1)C(=O)N2` [Example 36, 4-Methyl-5-(2′-oxo-2′,3′-dihydrospiro[cyclohexane-1,3′-[3H]indol]-5′-yl)-2-thiophene carbonitrile], the melting point lay in the range of 200 to 203 °C. Also, affinity in series [1] was put at a Ki of 4.8 nM. For the same compound, in series [2], the inhibition in vivo at 10 mg/kg amounted to 50%.
Turning to `O=C1Nc2ccc(-c3ccc([N+](=O)[O-])[nH]3)cc2C12CCCCC2` [Example 44, 5′-(5-Nitro-1H-pyrrol-2-yl)spiro[cyclohexane-1,3′-[3H]indol]-2′(1′H)-one], the melting point was 278 °C (dec.). In series [1], the Ki stood at 123 nM. In series [2], the inhibition in vivo at 3 mg/kg was determined as 50%.
The compound `N#Cc1cccc(-c2ccc3c(c2)C2(CCCC2)C(=O)N3)c1` [Example 77, 5′-(3-Cyanophenyl)-spiro[cyclopentane-1,3′-[3H]indol]-2′(1′H)-one] showed a melting point of 217 to 219 °C. The inhibition in vivo at 3 mg/kg in series [2] was 60%.
The term EC50 denotes the concentration at which the effect is half-maximal. Low readings indicate an effect from little substance, high ones a need for much substance. In turn, `CC(=O)O[C@]1(C(C)=O)CC[C@H]2[C@@H]3C[C@H](C)C4=CC(=O)CC[C@]4(C)[C@H]3CC[C@@]21C` [MPA, medroxyprogesterone acetate] came in with an EC50 in series [3] (Homo sapiens, T47D) of 0.019 nM.
For the compound `C[C@H](O)C(=O)[C@@]1(C)CC[C@H]2[C@@H]3CCC4=CC(=O)CCC4=C3CC[C@@]21C` [Trimegestone], in series [3], the EC50 was 0.017 nM and 0.014 nM and 0.019 nM.

Values taken from patent US6391907B1, “Indoline derivatives” (American Home Products Corporation, priority 1999, dated 2002).
